Settings: compared with sodium dodecyl sulfate (SDS)

For sodium lauroyl sarcosinate [SLS], which “solubility in the compositions” value is on record?
The value was “detergent to be substantially more soluble in our”.

— patent publication US20230272368A1, “PRODUCTS AND METHODS FOR DETECTION OF VIRAL NUCLEIC ACID” (priority 2020, published 2023)
